In PMC5826148, “Whole-Cell Screen of Fragment Library Identifies Gut Microbiota Metabolite Indole Propionic Acid as Antitubercular” (Antimicrobial Agents and Chemotherapy, 2018):
Converted amounts (≈) assume the structure as drawn. Read-outs that look alike come from different tables or passages of the source.

Tests used:
Escherichia coli = test: Spectrum of activity: E. coli growth inhibition; assay type: cell-based; conditions: Escherichia coli, read-out: Antibacterial activity (MIC50) E. coli
[1] = tested on: human red blood cells (RBCs); test: Red blood cell lysis assay; conditions: hemolysis
M. abscessus = test: Spectrum of activity: M. abscessus growth inhibition; assay type: cell-based; conditions: Mycobacteroides abscessus, 72 h, read-out: Antibacterial activity (MIC50) M. abscessus
[2] = Cytotoxicity assay, THP-1 cells (CellTiter 96 AQueous One); conditions: human
[3] = Cytotoxicity assay, HepG2 cells (CellTiter 96 AQueous One); conditions: human, HepG2 cells
M. tuberculosis H37Rv [4] = test: Bactericidal activity, CFU enumeration on agar after treatment; assay type: cell-based, Mycobacterium tuberculosis; conditions: Mycobacterium tuberculosis, H37RV, read-out: Bactericidal activity (log reduction) at 1 mM
M. tuberculosis H37Rv [5] = test: M. tuberculosis growth inhibition dose-response (MIC50), turbidity readout; assay type: cell-based, Mycobacterium tuberculosis; conditions: Mycobacterium tuberculosis, 240 h, read-out: Antibacterial activity (MIC50) M. tuberculosis
Staphylococcus aureus = test: Spectrum of activity: S. aureus growth inhibition; assay type: cell-based; conditions: Staphylococcus aureus, read-out: Antibacterial activity (MIC50) S. aureus
M. bovis BCG Pasteur = test: microbe, parasite or virus in culture; assay type: cell-based; conditions: Mycobacterium tuberculosis variant bovis BCG, BCG, read-out: Antibacterial activity (MIC50) M. bovis BCG
M. tuberculosis = test: Growth inhibition in acidic medium (pH 6.2); assay type: cell-based, Mycobacterium tuberculosis
M. smegmatis = test: Spectrum of activity: M. smegmatis growth inhibition; assay type: cell-based; conditions: Mycolicibacterium smegmatis, 24 h, read-out: Antibacterial activity (MIC50) M. smegmatis
M. avium = test: Spectrum of activity: M. avium growth inhibition; assay type: cell-based; conditions: Mycobacterium avium, 96 h, read-out: Antibacterial activity (MIC50) M. avium
[6] = M. tuberculosis, 1 mM, log CFU/ml reduction from initial inoculum
[7] = Mycobacterium tuberculosis, pH 6.2; read-out: Activity (MIC50) in acidic medium (pH 6.2)
[8] = Mycobacterium tuberculosis, pH 6.2, read-out: Activity (MIC50) in acidic medium (pH 6.2)

Row | SMILES | MIC50 (Escherichia coli; LB medium, overnight) | RBCs HC50 [1] | MIC50 (M. abscessus; 3 days) | CC50 at 24 h [2] | CC50 at 24 h [3] | log reduction at 1000 µM (M. tuberculosis H37Rv [4]; [6]) | MIC50 (M. tuberculosis H37Rv [5]; H37Rv, 10 days) | MIC50 (Staphylococcus aureus; LB medium, overnight) | MIC50 (M. bovis BCG Pasteur) | MIC50 (M. tuberculosis; [7]) | MIC50 (M. smegmatis; 1 day) | MIC50 (M. avium; 4 days) | MIC50 (Escherichia coli) | MIC50 (M. abscessus) | log reduction at 1000 µM (M. tuberculosis H37Rv [4]) | MIC50 (M. tuberculosis H37Rv [5]; H37RV) | MIC50 (Staphylococcus aureus) | MIC50 (M. tuberculosis; [8]) | MIC50 (M. smegmatis) | MIC50 (M. avium)
1 | O=c1cc(C(F)(F)F)c2ccc(O)cc2o1 [Fragment F2, 7-Hydroxy-4-(trifluoromethyl)-2H-chromen-2-one] | 432 µM (≈ 99.4 µg/mL) | >1,000 μM | > 500 µM | 879 µM | 987 µM | 1.1 | 213 µM (≈ 49 µg/mL) | 198 µM (≈ 45.6 µg/mL) | 329 µM (≈ 75.7 µg/mL) | 179 µM (≈ 41.2 µg/mL) | 476 µM (≈ 110 µg/mL) | > 500 µM | – | – | – | – | – | – | – | –
2 | Cc1ncc(C(N)=S)[nH]1 [Fragment F3, 2-Methyl-1H-imidazole-4-carbothioamide] | > 500 µM | >1,000 μM | 304 µM (≈ 42.9 µg/mL) | 850 µM | > 1000 µM | 1.87 | 105 µM (≈ 14.8 µg/mL) | > 500 µM | 134 µM (≈ 18.9 µg/mL) | 98 µM (≈ 13.8 µg/mL) | > 500 µM | 198 µM (≈ 28 µg/mL) | – | – | – | – | – | – | – | –
3 | COC(=O)c1cc2ccccc2cn1 [Fragment F4, Methyl isoquinoline-3-carboxylate] | > 500 µM | >1,000 μM | > 500 µM | > 1000 µM | > 1000 µM | 1.98 | 175 µM (≈ 32.8 µg/mL) | > 500 µM | 143 µM (≈ 26.8 µg/mL) | 158 µM (≈ 29.6 µg/mL) | 389 µM (≈ 72.8 µg/mL) | 344 µM (≈ 64.4 µg/mL) | – | – | – | – | – | – | – | –
4 | Nc1ccc2oc3c(c2c1)CCCC3 [Fragment F5, 6,7,8,9-Tetrahydrodibenzo [b,d]furan-2-amine] | > 500 µM | >1,000 μM | > 500 µM | > 1000 µM | > 1000 µM | 1.11 | 245 µM (≈ 45.9 µg/mL) | > 500 µM | 488 µM (≈ 91.4 µg/mL) | 62 µM (≈ 11.6 µg/mL) | > 500 µM | > 500 µM | – | – | – | – | – | – | – | –
5 | c1ccc2c(c1)[nH]c1cnccc12 [Fragment F6, 9H-Pyrido[3,4-b]indole] | – | 787 µM | – | – | – | – | – | – | 205 µM (≈ 34.5 µg/mL) | – | – | – | 302 µM (≈ 50.8 µg/mL) | 254 µM (≈ 42.7 µg/mL) | 0.43 | 97 µM (≈ 16.3 µg/mL) | > 500 µM | 113 µM (≈ 19 µg/mL) | 121 µM (≈ 20.4 µg/mL) | 302 µM (≈ 50.8 µg/mL)
6 | Cc1oc(-c2ccc(Cl)cc2)cc1C(=O)N(C)C [Fragment F8, 5-(4-Chlorophenyl)-N,N,2-trimethyl-3-furamide] | > 500 µM | 433 µM | 322 µM (≈ 84.9 µg/mL) | 234 µM | 589 µM | 1.44 | 135 µM (≈ 35.6 µg/mL) | > 500 µM | 189 µM (≈ 49.8 µg/mL) | 93 µM (≈ 24.5 µg/mL) | 233 µM (≈ 61.4 µg/mL) | 169 µM (≈ 44.6 µg/mL) | – | – | – | – | – | – | – | –
7 | COC(=O)c1sc2ccccc2c1O [Fragment F9, Methyl 3-hydroxy-1-benzo thiophene-2-carboxylate] | > 500 µM | >1,000 μM | > 500 µM | – | – | 2.09 | 142 µM (≈ 29.6 µg/mL) | 217 µM (≈ 45.2 µg/mL) | > 500 µM | 240 µM (≈ 50 µg/mL) | > 500 µM | > 500 µM | – | – | – | – | – | – | – | –
8 | O=C(O)c1ccc(-c2ccccc2)s1 [Fragment F10, 5-Phenylthiophene-2-carboxylic acid] | > 500 µM | >1,000 μM | 247 µM (≈ 50.4 µg/mL) | 544 µM | 612 µM | 1.46 | 186 µM (≈ 38 µg/mL) | > 500 µM | 397 µM (≈ 81.1 µg/mL) | 97 µM (≈ 19.8 µg/mL) | 345 µM (≈ 70.5 µg/mL) | > 500 µM | – | – | – | – | – | – | – | –
9 | CSc1cc(-c2ccc(F)cc2)n[nH]1 [Fragment F11, 3-(4-Fluorophenyl)-5-(methylsulfanyl)-1H-pyrazole] | 344 µM (≈ 71.6 µg/mL) | >1,000 μM | 271 µM (≈ 56.4 µg/mL) | 765 µM | 945 µM | 3.06 | 195 µM (≈ 40.6 µg/mL) | > 500 µM | 308 µM (≈ 64.1 µg/mL) | 140 µM (≈ 29.2 µg/mL) | 398 µM (≈ 82.9 µg/mL) | 498 µM (≈ 104 µg/mL) | – | – | – | – | – | – | – | –
10 | Clc1ccc2nc(N3CCCNCC3)sc2c1 [Fragment F12, 6-Chloro-2-(1,4-diazepan-1-yl)-1,3-benzothiazole] | 324 µM (≈ 86.8 µg/mL) | >1,000 μM | 351 µM (≈ 94 µg/mL) | 124 µM | 187 µM | 2.8 | 198 µM (≈ 53 µg/mL) | > 500 µM | 137 µM (≈ 36.7 µg/mL) | 104 µM (≈ 27.8 µg/mL) | 221 µM (≈ 59.2 µg/mL) | 157 µM (≈ 42 µg/mL) | – | – | – | – | – | – | – | –
11 | O=C(O)c1cc2ccccc2cn1 [Fragment F14, Isoquinoline-3-carboxylic acid] | – | >1,000 μM | – | – | – | – | – | – | 193 µM (≈ 33.4 µg/mL) | – | – | – | 193 µM (≈ 33.4 µg/mL) | > 500 µM | 1.97 | 235 µM (≈ 40.7 µg/mL) | 304 µM (≈ 52.6 µg/mL) | 87 µM (≈ 15.1 µg/mL) | 176 µM (≈ 30.5 µg/mL) | 473 µM (≈ 81.9 µg/mL)
12 | Cc1n[nH]c(C)c1Oc1ccc(Cl)cc1 [Fragment F15, 4-(4-Chlorophenoxy)-3,5-dimethyl-1H-pyrazole] | > 500 µM | 453 µM | 256 µM (≈ 57 µg/mL) | 345 µM | 676 µM | 2.43 | 235 µM (≈ 52.3 µg/mL) | 79 µM (≈ 17.6 µg/mL) | 156 µM (≈ 34.7 µg/mL) | 157 µM (≈ 35 µg/mL) | 198 µM (≈ 44.1 µg/mL) | 174 µM (≈ 38.7 µg/mL) | – | – | – | – | – | – | – | –
13 | Cc1cc(C(=O)O)c(C)n1Cc1cccs1 [Fragment F16, 2,5-Dimethyl-1-(2-thienylmethyl)-1H-pyrrole-3-carboxylic acid] | > 500 µM | >1,000 μM | > 500 µM | 724 µM | 766 µM | 1.89 | 247 µM (≈ 58.1 µg/mL) | > 500 µM | > 500 µM | 345 µM (≈ 81.2 µg/mL) | > 500 µM | > 500 µM | – | – | – | – | – | – | – | –
14 | NCc1cccc(N2CCCCC2)n1 [Fragment F17, [6-(Piperidin-1-yl)pyridin-2-yl]methanamine] | > 500 µM | >1,000 μM | > 500 µM | 489 µM | 455 µM | 3.07 | 250 µM (≈ 47.8 µg/mL) | 104 µM (≈ 19.9 µg/mL) | 345 µM (≈ 66 µg/mL) | 245 µM (≈ 46.9 µg/mL) | > 500 µM | 271 µM (≈ 51.8 µg/mL) | – | – | – | – | – | – | – | –
15 | Cc1ccc2c(c1)N(CCO)C(C)(C)CC2C.O (stereo not shown) [Fragment F18, 2-(2,2,4,7-Tetramethyl-1,2,3,4-tetrahydroquinolin-1-yl)ethan-1-ol hydrate] | – | 471 µM | – | – | – | – | – | – | 87 µM | – | – | – | > 500 µM | 247 µM | 1.67 | 268 µM | 189 µM | 86 µM | 205 µM | 198 µM
16 | CCOC(=O)c1c(N)sc(C)c1-c1ccccc1 [Fragment F19, Ethyl 2-amino-5-methyl-4-phenylthiophene-3-carboxylate] | > 500 µM | 453 µM | 206 µM (≈ 53.8 µg/mL) | 247 µM | 233 µM | 1.98 | 270 µM (≈ 70.6 µg/mL) | 344 µM (≈ 89.9 µg/mL) | 267 µM (≈ 69.8 µg/mL) | 117 µM (≈ 30.6 µg/mL) | 491 µM (≈ 128 µg/mL) | 214 µM (≈ 55.9 µg/mL) | – | – | – | – | – | – | – | –
17 | O=C(O)c1ccc(-c2cccs2)s1 [Fragment F20, [2,2′-Bithiophene]-5-carboxylic acid] | > 500 µM | >1,000 μM | 267 µM (≈ 56.1 µg/mL) | 974 µM | 765 µM | 1.98 | 271 µM (≈ 57 µg/mL) | > 500 µM | 457 µM (≈ 96.1 µg/mL) | 170 µM (≈ 35.7 µg/mL) | 289 µM (≈ 60.8 µg/mL) | > 500 µM | – | – | – | – | – | – | – | –
18 | Cc1cc2cc(N)ccc2[nH]1 [Fragment F21, 2-Methyl-1H-indol-5-amine] | > 500 µM | >1,000 μM | > 500 µM | 409 µM | 387 µM | 2.5 | 281 µM (≈ 41.1 µg/mL) | 487 µM (≈ 71.2 µg/mL) | 398 µM (≈ 58.2 µg/mL) | 305 µM (≈ 44.6 µg/mL) | 401 µM (≈ 58.6 µg/mL) | > 500 µM | – | – | – | – | – | – | – | –
19 | N#Cc1ccc(O)cc1F [Fragment F22, 2-Fluoro-4-hydroxybenzonitrile] | 202 µM (≈ 27.7 µg/mL) | >1,000 μM | 401 µM (≈ 55 µg/mL) | 677 µM | 879 µM | 1.6 | 300 µM (≈ 41.1 µg/mL) | 343 µM (≈ 47 µg/mL) | 420 µM (≈ 57.6 µg/mL) | 140 µM (≈ 19.2 µg/mL) | 487 µM (≈ 66.8 µg/mL) | 317 µM (≈ 43.5 µg/mL) | – | – | – | – | – | – | – | –
